{
  "source": "ChEMBL document CHEMBL1201862",
  "about": "“PubChem BioAssay data set” (2004)",
  "test_in_all_cases": "NCI-60 cell line screen, 48 h",
  "key": {"HL-60": {"system": "HL-60"}, "SF-539": {"system": "SF-539"}, "KM12": {"system": "KM12"}, "U-251": {"system": "U-251"}, "HOP-62": {"system": "HOP-62"}, "A498": {"system": "A498"}, "SK-OV-3": {"system": "SK-OV-3"}, "M14": {"system": "M14"}, "MOLT-4": {"system": "MOLT-4"}, "NCI-H23": {"system": "NCI-H23"}, "SK-MEL-28": {"system": "SK-MEL-28"}, "NCI-H522": {"system": "NCI-H522"}, "CCRF-CEM": {"system": "CCRF-CEM"}, "SNB-78": {"system": "SNB-78"}, "CAKI-1": {"system": "CAKI-1"}, "SF-268": {"system": "SF-268"}, "IGROV-1": {"system": "IGROV-1"}, "UO-31": {"system": "UO-31"}, "RXF 631": {"system": "RXF 631"}, "RPMI-8226": {"system": "RPMI-8226"}, "OVCAR-5": {"system": "OVCAR-5"}, "NCI-H226": {"system": "NCI-H226"}, "KM-20L2": {"system": "KM-20L2"}, "OVCAR-4": {"system": "OVCAR-4"}, "786-0": {"system": "786-0"}, "SK-MEL-5": {"system": "SK-MEL-5"}, "K562": {"system": "K562"}, "LOX IMVI": {"system": "LOX IMVI"}, "DMS-273": {"system": "DMS-273"}, "HCT-116": {"system": "HCT-116"}, "A549": {"system": "A549"}, "M19-MEL": {"system": "M19-MEL"}, "UACC-257": {"system": "UACC-257"}, "COLO 205": {"system": "COLO 205"}, "HCT-15": {"system": "HCT-15"}, "EKVX": {"system": "EKVX"}, "SNB-75": {"system": "SNB-75"}, "DLD-1": {"system": "DLD-1"}, "OVCAR-8": {"system": "OVCAR-8"}, "SF-295": {"system": "SF-295"}, "HCC 2998": {"system": "HCC 2998"}, "HT-29": {"system": "HT-29"}, "HOP-18": {"system": "HOP-18"}, "OVCAR-3": {"system": "OVCAR-3"}, "LXFL 529": {"system": "LXFL 529"}, "TK-10": {"system": "TK-10"}, "Malme-3M": {"system": "Malme-3M"}, "SNB-19": {"system": "SNB-19"}, "SR": {"system": "SR"}, "NCI-H460": {"system": "NCI-H460"}, "UACC-62": {"system": "UACC-62"}, "DMS-114": {"system": "DMS-114"}, "RXF 393": {"system": "RXF 393"}, "SW-620": {"system": "SW-620"}, "XF498": {"system": "XF498"}, "HOP-92": {"system": "HOP-92"}, "ACHN": {"system": "ACHN"}, "SK-MEL-2": {"system": "SK-MEL-2"}, "SN12C": {"system": "SN12C"}},
  "note": "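Where inhibition never reached the appropriate level, the endpoint shown equals the highest concentration tested. Otherwise, values were interpolated linearly from a five-concentration, 48-hour dose response in 96-well plates. Here, GI50 denotes the concentration required for 50% inhibition of growth.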 Calls of active or inactive are those of the source. Cut-off read from the data, not from the text of the source: active = GI50 up to about 1.1 µM and inactive = higher.",
  "data": [
    {"smiles": "CCCCCCCSCC1C(=O)C23C(O)C1CCC2C12COC3(O)C(O)C1C(C)(C)CCC2O", "note": "(centres undefined)", "values": [
      {"measurement": "GI50", "setting": "HL-60", "value": "3.96 µM (inactive)"},
      {"measurement": "GI50", "setting": "SF-539", "value": "13.2 µM (inactive)"},
      {"measurement": "GI50", "setting": "KM12", "value": "10.6 µM (inactive)"},
      {"measurement": "GI50", "setting": "U-251", "value": "10.7 µM (inactive)"},
      {"measurement": "GI50", "setting": "HOP-62", "value": "20.3 µM (inactive)"},
      {"measurement": "GI50", "setting": "A498", "value": "11.5 µM (inactive)"},
      {"measurement": "GI50", "setting": "SK-OV-3", "value": "18.1 µM (inactive)"},
      {"measurement": "GI50", "setting": "M14", "value": "12.2 µM (inactive)"},
      {"measurement": "GI50", "setting": "MOLT-4", "value": "3.3 µM (inactive)"},
      {"measurement": "GI50", "setting": "NCI-H23", "value": "16.3 µM (inactive)"},
      {"measurement": "GI50", "setting": "SK-MEL-28", "value": "9.51 µM (inactive)"},
      {"measurement": "GI50", "setting": "NCI-H522", "value": "1.4 µM (inactive)"},
      {"measurement": "GI50", "setting": "CCRF-CEM", "value": "2.75 µM (inactive)"},
      {"measurement": "GI50", "setting": "SNB-78", "value": "15.3 µM (inactive)"},
      {"measurement": "GI50", "setting": "CAKI-1", "value": "4.83 µM (inactive)"},
      {"measurement": "GI50", "setting": "SF-268", "value": "10.8 µM (inactive)"},
      {"measurement": "GI50", "setting": "IGROV-1", "value": "17.9 µM (inactive)"},
      {"measurement": "GI50", "setting": "UO-31", "value": "11.2 µM (inactive)"},
      {"measurement": "GI50", "setting": "RXF 631", "value": "5.04 µM (inactive)"},
      {"measurement": "GI50", "setting": "RPMI-8226", "value": "4.06 µM (inactive)"},
      {"measurement": "GI50", "setting": "OVCAR-5", "value": "17.5 µM (inactive)"},
      {"measurement": "GI50", "setting": "NCI-H226", "value": "17.7 µM (inactive)"},
      {"measurement": "GI50", "setting": "KM-20L2", "value": "12 µM (inactive)"},
      {"measurement": "GI50", "setting": "OVCAR-4", "value": "11.8 µM (inactive)"},
      {"measurement": "GI50", "setting": "786-0", "value": "13.8 µM (inactive)"},
      {"measurement": "GI50", "setting": "SK-MEL-5", "value": "12.1 µM (inactive)"},
      {"measurement": "GI50", "setting": "K562", "value": "3.98 µM (inactive)"},
      {"measurement": "GI50", "setting": "LOX IMVI", "value": "13.3 µM (inactive)"},
      {"measurement": "GI50", "setting": "DMS-273", "value": "12.6 µM (inactive)"},
      {"measurement": "GI50", "setting": "HCT-116", "value": "5.5 µM (inactive)"},
      {"measurement": "GI50", "setting": "A549", "value": "18.7 µM (inactive)"},
      {"measurement": "GI50", "setting": "M19-MEL", "value": "15.3 µM (inactive)"},
      {"measurement": "GI50", "setting": "UACC-257", "value": "7.16 µM (inactive)"},
      {"measurement": "GI50", "setting": "COLO 205", "value": "4.16 µM (inactive)"},
      {"measurement": "GI50", "setting": "HCT-15", "value": 9.02, "unit": "µM"},
      {"measurement": "GI50", "setting": "EKVX", "value": "17.7 µM (inactive)"},
      {"measurement": "GI50", "setting": "SNB-75", "value": "21.2 µM (inactive)"},
      {"measurement": "GI50", "setting": "DLD-1", "value": "14.4 µM (inactive)"},
      {"measurement": "GI50", "setting": "OVCAR-8", "value": "16.4 µM (inactive)"},
      {"measurement": "GI50", "setting": "SF-295", "value": "17.9 µM (inactive)"},
      {"measurement": "GI50", "setting": "HCC 2998", "value": "15 µM (inactive)"},
      {"measurement": "GI50", "setting": "HT-29", "value": "13.5 µM (inactive)"},
      {"measurement": "GI50", "setting": "HOP-18", "value": "12.5 µM (inactive)"},
      {"measurement": "GI50", "setting": "OVCAR-3", "value": "16.7 µM (inactive)"},
      {"measurement": "GI50", "setting": "LXFL 529", "value": "2.37 µM (inactive)"},
      {"measurement": "GI50", "setting": "TK-10", "value": "15.9 µM (inactive)"},
      {"measurement": "GI50", "setting": "Malme-3M", "value": "14.1 µM (inactive)"},
      {"measurement": "GI50", "setting": "SNB-19", "value": "18.9 µM (inactive)"},
      {"measurement": "GI50", "setting": "SR", "value": "4.92 µM (inactive)"},
      {"measurement": "GI50", "setting": "NCI-H460", "value": "15.1 µM (inactive)"},
      {"measurement": "GI50", "setting": "UACC-62", "value": "11.5 µM (inactive)"},
      {"measurement": "GI50", "setting": "DMS-114", "value": "8.38 µM (inactive)"},
      {"measurement": "GI50", "setting": "RXF 393", "value": "11.2 µM (inactive)"},
      {"measurement": "GI50", "setting": "SW-620", "value": "0.881 µM (active)"},
      {"measurement": "GI50", "setting": "XF498", "value": "18.5 µM (inactive)"},
      {"measurement": "GI50", "setting": "HOP-92", "value": "13.9 µM (inactive)"},
      {"measurement": "GI50", "setting": "ACHN", "value": "12.4 µM (inactive)"},
      {"measurement": "GI50", "setting": "SK-MEL-2", "value": "14.8 µM (inactive)"},
      {"measurement": "GI50", "setting": "SN12C", "value": "8.41 µM (inactive)"}
    ]}
  ]
}
